{"source": "patent US8507547B2", "about": "“Anti-fatigue agents and oral compositions containing andrographolide as active ingredient” (Suntory Holdings Limited, priority 2007, dated 2013)", "key": {"Balb/c mice": {"test_system": "Balb/c mice", "experiment": "Measurement of liver fatigue (serum GOT, GPT, liver TBARS) after water immersion and sleep disturbance", "type": "in vivo", "conditions": "8 mg per kilogram of body weight orally once daily during two days of water immersion", "experimental": "The second test is measurement of liver fatigue. This is described in detail below in Example 2. […] In a liver of this model, GOT and GPT levels increased, compared with those of a normally-reared group. GOT (glutamic oxalacetic transaminase) and GPT (glutamic pyruvic transaminase), which are enzymes present in hepatic cells, are known to escape into blood when hepatic cells are damaged. Therefore, a level of damage on the liver is determined by measuring GOT and GPT in blood. […] It is inferred that the long-term general fatigue condition caused alteration in liver function, disruption of oxygen reduction system balance, and the like to result in accumulation of lipid peroxide. This is considered to support the fact that this model is an organ fatigue model.\nThat is to say, since this animal model is also an organ fatigue model, anti-fatigue action against organ fatigue would be confirmed if it is observed that administration of the test substance, for instance, returns a changed organ fatigue marker, such as GOT, GPT, and TBARS mentioned above, to a normal level and reduces change in the organ markers. Such anti-fatigue action is considered to regulate overall activity of internal organs to condition metabolism, thereby being involved in reduction of physical and mental fatigue stress, maintenance of energy, improvement in endurance, and the like.\nEffect of andrographolide on fatigue from water immersion and sleep disturbance was examined using a partially modified method of Tanaka et al. (Neuroscience Let. 352, 159-162, 2003). […] Blood serum was separated from the blood, and GOT (glutamic oxalacetic transaminase) and GPT (glutamic pyruvic transaminase) in the blood serum were measured with a small-sized biochemistry automatic analyzer (Model 7070, Hitachi High-Technologies Corporation). Further, levels of lipid peroxide from liver were measured as a level of TBARS (thiobarbituric acid reactive substances). […] Then, the TBARS levels were measured in accordance with the method of Ohkawa et al. Anal. Biochem. 95. […]"}, "[1]": {"experiment": "Stability of andrographolide", "type": "physicochemical", "text": "Thus andrographolide can be contained in the composition of the present invention without being processed or made into various forms according to the purpose by use of methods that are publicly known among people skilled in the art; for instance, it can be made into food, drink, seasoning, alcoholic beverages, functional food, pharmaceuticals, or the like. Especially the composition of the present invention can be made into pharmaceuticals for oral administration or food (e.g., functional food, dietary supplement, food with nutrient function, food for specified use, food for specified health use, nutritional supplement, health food, food for diet therapy, general health food, supplements)."}, "[2]": {"test_system": "fatigue animal models such as mice and rats", "experiment": "Fatigue animal models such as mice and rats (summary of effective intake)", "type": "in vivo", "experimental": "Accordingly, the amount of andrographolide to be contained in the composition of the present invention is 0.01-500 mg per kilogram of body weight, preferably 0.1-50 mg per kilogram of body weight, more preferably 0.1-10 mg per kilogram of body weight, especially preferably 0.25-10 mg per kilogram of body weight, per daily amount of the composition to be taken by animals including humans. Especially in the case in which andrographolide is to be orally administered to humans (adult) to obtain anti-fatigue action, it is generally suitable to administer 0.1-100 mg of andrographolide, preferably 0.1-50 mg, more preferably 0.1-10 mg, especially preferably 0.25-10 mg, per daily amount of andrographolide to be taken."}}, "data": [{"smiles": "C=C1CC[C@@H]2[C@](C)(CO)[C@H](O)CC[C@@]2(C)[C@@H]1C/C=C1/C(=O)OC[C@H]1O", "note": "[andrographolide]", "values": [{"measurement": "GOT level in the blood serum", "setting": "Balb/c mice; FIG. 2(A)", "value": "prevented from increasing"}, {"measurement": "GPT level in the blood serum", "setting": "Balb/c mice; FIG. 2(B)", "value": "prevented from increasing"}, {"measurement": "liver TBARS level", "setting": "Balb/c mice; FIG. 2(C)", "value": "prevented from increasing"}, {"measurement": "stability to pH, moisture, oxidation, light, heat", "setting": "[1]", "value": "high stability"}, {"measurement": "intake producing desired anti-fatigue action", "setting": "[2]; taken in advance or during fatigue stress to prevent or reduce mental, physical and organ fatigue", "value": "0.25-200 mg per kilogram of body weight"}, {"measurement": "intake producing desired anti-fatigue action", "setting": "[2]; taken in to promote recovery from physical fatigue already developed", "value": "0.5-8 mg per kilogram of body weight"}]}]}
